Experimental data taken from ChEMBL document CHEMBL1146727, “Stereodefined and polyunsaturated inhibitors of histone deacetylase based on (2E,4E)-5-arylpenta-2,4-dienoic acid hydroxyamides” (Bioorg Med Chem Lett, 2004).

The molecules below were run against Histone deacetylase (assay: Inhibition of histone deacetylase (HDAC) activity in HeLa cell nuclear extract).
Type: cell-based, Homo sapiens

IC50 [nM]	SMILES
279	O=C(/C=C/C=C/c1ccccc1)NO
302	CC(/C=C/C(=O)NO)=C\c1ccc(Cl)cc1
172	CC(/C=C/C(=O)NO)=C\c1ccc(NS(=O)(=O)c2ccccc2)cc1
2580	O=C(CCCCc1ccc(Cl)cc1)NO
74	COc1ccc(S(=O)(=O)Nc2ccc(/C=C(C)/C=C/C(=O)NO)cc2)cc1
1700	CN(C)c1ccc(/C=C/C=C/C(=O)NO)cc1
49	CC(/C=C/C(=O)NO)=C\c1ccc(NS(=O)(=O)c2ccc(Cl)cc2)cc1
10400	COc1ccc(S(=O)(=O)Nc2ccc(/C=C/C=C/C(=O)NO)cc2)cc1
788	CC(/C=C/C(=O)NO)=C\c1ccc(N(C)C)cc1
> 100000	CC(/C=C/C(=O)O)=C\c1ccc(NS(=O)(=O)c2ccc(Cl)cc2)cc1
1170	CC(CCC(=O)NO)Cc1ccc(NS(=O)(=O)c2ccc(Cl)cc2)cc1 (configuration not stated)
252	O=C(/C=C/C=C/c1ccc(Cl)cc1)NO
